Test results taken from patent publication US10780092B2, “Fused pyrazine derivatives useful as soluble guanylate cyclase stimulators” (Merck Sharp & Dohme Corp., priority 2016, dated 2020).

What was measured:
[1] = target: sGC α1/β1 heterodimer (Homo sapiens (Human), UniProt Q02108+Q02153); test: Cell-based sGC functional assay (CASA assay), cGMP by HTRF; conditions: CHO-K1/sGC cells; for Emax: CHO-K1, cGMP production as percentage of maximum of compound A (set to 100%), read-out: % Activation; for EC50: inflection point of cGMP production, 4P fit, read-out: IP
In short: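 CHO-K1 cells stably expressing human sGC α1/β1, with 0.5 mM IBMX, pre-incubated ±1 μM DETA-NO 30 min at 25° C, then compound 1 hr at 37° C (2.5% DMSO). cGMP by HTRF; activation as % of reference activator maximum, 4P fit giving inflection point and maximum […].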

[2] = target: human recombinant sGC enzyme (Homo sapiens (Human), UniProt Q02108+Q02153); test: SEC competition binding assay with [3H] Compound B radioligand; conditions: displacement of 1.6 nM [3H] Compound B, 24 h at 37° C.
In short: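 Recombinant human sGC incubated with 1.6 nM [3H] Compound B and test compounds for 24 h at 37° C. Buffer: 50 mM triethanolamine pH 7.4, 3 mM MgCl2, 0.025% BSA, 2 mM DTT, 300 μM DETA/NO, 400 μM GTP, 1% DMSO. Bound ligand separated by gel filtration and counted by scintillation; non-specific binding with 1 μM Compound B; Ki from one-site fit.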

[3] = system: hypoxia-induced pulmonary hypertension in rat; test: Acute efficacy in hypoxia-induced pulmonary hypertension in rat following intratracheal (IT) administration; format: in vivo; conditions: decrease in SBP at dose giving decrease in PAP ≥15 mmHg
Excerpt: Acute Efficacy in Hypoxia-Induced Pulmonary Hypertension in Rat Following Intratracheal (IT) Administration Charles River Sprague-Dawley (CD) male rats weighing approximately 350 g were implanted with HD-S21 dual pressure telemetry transmitters (Data Sciences International (DSI)) into the pulmonary artery and femoral artery. This transmitter enables simultaneous measurement of both pulmonary and systemic hemodynamic parameters in the same animal. After a 7-10 day post-operative recovery period, animals were subjected to a normobaric hypoxic (10% oxygen) environment using a Higher Peak Mountain Air Generator (MAG-10) connected to a modified rodent cage via a fitted inlet port. Oxygen (at 10%), temperature, humidity, and CO2 were controlled within normal range and animals were maintained on a 12 hour light-dark cycle with ad libitum access to food and water. After two weeks exposure to 10% O2 hypoxic environment, systolic pulmonary arterial pressure readings increased from ˜25 mmHg to greater than 50 mmHg. Using a 48 hour baseline average, animals with readings between 50-110 mmHg (standard deviation of less than 10 mmHg) and minimal changes in systolic systemic blood pressure were enrolled for study. Animals were utilized for up to 2 studies per week for 4 weeks with a minimum of 2 days washout between doses of test agent. Compound or vehicle was administered intra-tracheally under light isoflurane anesthesia (5% in oxygen; flow rate 2.0 L/min for 3 minutes). Once anesthetized, rats were placed on an angled intubation stand in supine position and the trachea visualized using a small laryngoscope. Animals then received either 0.5 mL/kg of vehicle or 0.5 mL/kg vehicle containing compound intra-tracheally delivered via microsprayer by use of a Penn-Century Microsprayer® needle 3″ (Model IA-1B-GP) attached to a 1 mL high pressure syringe (Penn Century-Model B—SYR-PL1000) (Penn-Century, Philadelphia, Pa.). The Microsprayer® tip was inserted into the trachea up to the point at which the bend in the needle is close to the tip of the snout, which positions the tip of the Microsprayer® in front of the carina (bifurcation of trachea at the bronchi). After dose delivery the animal is placed on its back in the home cage for recovery. Hemodynamic measurements were continuously recorded and readings consolidated to hourly moving averages. Each animal received a vehicle on Day 1 followed by vehicle or test agent on Day 2. Change from vehicle baseline was calculated by subtracting the hourly Day 1 vehicle response from the hourly Day 2 response and treatment group data was expressed as mean±SEM. Decreases of systolic blood pressure (SBP) and systolic pulmonary arterial pressure (PAP) were measured at a particular IT dose (mpk milligrams per kilogram) for the following Example compounds. Compounds in the Table 13 achieved a minimum decrease in PAP of ≥15 mmHg for the corresponding decrease in SBP listed.

SMILES | Emax [1] | EC50 [1] | Ki [2] | Category (decrease in SBP) ([3]; IT dose 0.3 mpk) | Category (decrease in SBP) ([3]; IT dose 0.01 mpk) | Category (decrease in SBP) ([3]; IT dose 0.03 mpk)
CC1(c2cc(O)c(C#N)c(Cl)c2)C(=O)Nc2nc(-c3cn4ccnc4c(Cc4cccc(F)c4)n3)nc(N)c21 (stereo not shown) [Example 144-A, 4-(4-amino-2-{8-(3-fluorobenzyl)imidazo-[1,2-a]pyrazin-6-yl}-5-methyl-6-oxo-6,7-dihydro-5H-pyrrolo-[2,3-d]pyrimidin-5-yl)-2-chloro-6-hydroxy-benzonitrile] | 91% | 2680 nM | 0.333 nM |  |  | 
CC1(c2cc(O)c(C(F)(F)F)cn2)C(=O)Nc2nc(-c3cn4ccnc4c(CC4CCCCC4)n3)nc(N)c21 (stereo not shown) [Example 147-B, 4-amino-2-{8-(cyclohexylmethyl)-imidazo[1,2-a]pyrazin-6-yl}-5-(4-hydroxy-5-(trifluoromethyl)pyridin-2-yl)-5-methyl-5,7-dihydro-6H-pyrrolo-[2,3-d]pyrimidin-6-one] | 102% | 1200 nM | 0.905 nM |  |  | 
CC1(c2cc(O)c(Cl)cn2)C(=O)Nc2nc(-c3cn4ncnc4c(Cc4ccccc4F)n3)nc(N)c21 (stereo not shown) [Example 148-B, 4-amino-5-(5-chloro-4-hydroxypyridin-2-yl)-2-{8-(2-fluorobenzyl)-[1,2,4]triazolo[1,5-a]-pyrazin-6-yl}-5-methyl-5,7-dihydro-6H-pyrrolo-[2,3-c]pyrimidin-6-one] | 105% | 242 nM | 0.261 nM |  |  | 
CC1(c2cc(O)c(C#N)c(Cl)c2)C(=O)Nc2nc(-c3cn4ncnc4c(Cc4ccccc4F)n3)nc(N)c21 (stereo not shown) [Example 149-A, 4-(4-amino-2-{8-(2-fluorobenzyl)-[1,2,4]-triazolo[1,5-a]pyrazin-6-yl}-5-methyl-6-oxo-6,7-dihydro-5H-pyrrolo-[2,3-d]pyrimidin-5-yl)-2-chloro-6-hydroxy-benzonitrile] | 54% | 583 nM | 0.509 nM |  |  | 
CC1(c2cc(O)c(C#N)c(Cl)c2)C(=O)Nc2nc(-c3cn4ncnc4c(CC4CCCCC4)n3)nc(N)c21 (stereo not shown) [Example 150-A, 4-(4-amino-2-{8-(cyclohexylmethyl)-[1,2,4]triazolo[1,5-a]-pyrazin-6-yl}-5-methyl-6-oxo-6,7-dihydro-5H-pyrrolo-[2,3-d]pyrimidin-5-yl)-2-chloro-6-hydroxy-benzonitrile] | 96% | 4120 nM | 0.989 nM |  |  | 
Cc1cnc(C2(C)C(=O)Nc3nc(-c4cn5ccnc5c(Cc5cccc(F)c5)n4)nc(N)c32)cc1O (stereo not shown) [Example 151-A, 4-Amino-2-{8-(3-fluorobenzyl)imidazo[1,2-a]pyrazin-6-yl}-5-(4-hydroxy-5-methylpyridin-2-yl)-5-methyl-5,7-dihydro-6H-pyrrolo[2,3-d]pyrimidin-6-one] | 84% | 1790 nM | 0.155 nM |  |  | 

Further lines, with some results ahead:

Emax [1] | EC50 [1] | Ki [2] | SMILES | Category (decrease in SBP) ([3]; IT dose 0.3 mpk) | Category (decrease in SBP) ([3]; IT dose 0.01 mpk) | Category (decrease in SBP) ([3]; IT dose 0.03 mpk)
79% | 63 nM | 5.03 nM | CC1(c2ccc(F)c(O)c2)C(=O)Nc2nc(-c3cn4ccnc4c(CCC(F)(F)C(F)(F)F)n3)nc(N)c21 (racemic) [Example 115-B, 4-Amino-5-(4-fluoro-3-hydroxyphenyl)-5-methyl-2-(8-(3,3,4,4,4-pentafluorobutyl)-imidazo[1,2-a]pyrazin-6-yl)-5,7-dihydro-6H-pyrrolo[2,3-d]pyrimidin-6-one] | C (decrease in SBP >10 mmHg) |  | 
94% | 109 nM | 8.55 nM | CC1(c2ccc(O)c(F)c2)C(=O)Nc2nc(-c3cn4ccnc4c(CCC(F)(F)C(F)(F)F)n3)nc(N)c21 (racemic) [Example 117-B, 4-Amino-5-(3-fluoro-4-hydroxyphenyl)-5-methyl-2-(8-(3,3,4,4,4-pentafluorobutyl)-imidazo[1,2-a]pyrazin-6-yl)-5,7-dihydro-6H-pyrrolo[2,3-d]pyrimidin-6-one] | C (decrease in SBP >10 mmHg) |  | 
118% | 226 nM | 0.095 nM | CC1(c2ccc(Cl)c(O)c2)C(=O)Nc2nc(-c3cn4ccnc4c(Cc4cccc(F)c4)n3)nc(N)c21 (stereo not shown) [Example 1-A, 4-Amino-5-(4-chloro-3-hydroxyphenyl)-2-{8-[(3-fluorophenyl)methyl]imidazo[1,2-a]pyrazin-6-yl}-5-methyl-5,7-dihydro-6H-pyrrolo[2,3-d]pyrimidin-6-one] |  | A (decrease in SBP 0-5 mmHg) | 
89% | 1620 nM | 0.095 nM | CC1(c2cc(O)c(Cl)c(F)c2)C(=O)Nc2nc(-c3cn4ccnc4c(Cc4ccccc4F)n3)nc(N)c21 (stereo not shown) [Example 2-B, 4-Amino-5-(4-chloro-3-fluoro-5-hydroxyphenyl)-2-{8-[(2-fluorophenyl)methyl]imidazo[1,2-a]pyrazin-6-yl}-5-methyl-5,7-dihydro-6H-pyrrolo[2,3-d]pyrimidin-6-one] |  | A (decrease in SBP 0-5 mmHg) | 
98% | 2080 nM | 0.219 nM | CC1(c2ccc(C(F)(F)F)c(O)c2)C(=O)Nc2nc(-c3cn4ccnc4c(Cc4ccccc4F)n3)nc(N)c21 (stereo not shown) [Example 3-B, 4-Amino-2-{8-[(2-fluorophenyl)methyl]imidazo[1,2-a]pyrazin-6-yl}-5-[3-hydroxy-4-(trifluoromethyl)phenyl]-5-methyl-5,7-dihydro-6H-pyrrolo[2,3-d]pyrimidin-6-one] |  |  | A (decrease in SBP 0-5 mmHg)
136% | 1920 nM | 0.259 nM | CC1(c2cc(O)c(Cl)cn2)C(=O)Nc2nc(-c3cn4ccnc4c(Cc4ccccc4F)n3)nc(N)c21 (stereo not shown) [Example 4-B, 4-Amino-5-(5-chloro-4-hydroxypyridin-2-yl)-2-{8-[(2-fluorophenyl)methyl]imidazo[1,2-a]pyrazin-6-yl}-5-methyl-5,7-dihydro-6H-pyrrolo[2,3-d]pyrimidin-6-one] |  |  | A (decrease in SBP 0-5 mmHg)
72% | 316 nM | 0.117 nM | CC1(c2ccc(Cl)c(O)c2)C(=O)Nc2nc(-c3cn4ccnc4c(Cc4ccccc4F)n3)nc(N)c21 (stereo not shown) [Example 8-A, 4-Amino-5-(4-chloro-3-hydroxyphenyl)-2-{8-[(2-fluorophenyl)methyl]imidazo[1,2-a]pyrazin-6-yl}-5-methyl-5,7-dihydro-6H-pyrrolo[2,3-d]pyrimidin-6-one] |  | B (decrease in SBP 5-10 mmHg) | 
79% | 2970 nM | 1.09 nM | CC1(c2cc(O)c(C#N)c(Cl)c2)C(=O)Nc2nc(-c3cn4ccnc4c(Cc4ccccc4F)n3)nc(N)c21 (stereo not shown) [Example 143-A, 4-(4-amino-2-{8-(2-fluorobenzyl)imidazo-[1,2-a]pyrazin-6-yl}-5-methyl-6-oxo-6,7-dihydro-5H-pyrrolo-[2,3-d]pyrimidin-5-yl)-2-chloro-6-hydroxy-benzonitrile] |  |  | 
91% | 2440 nM | 0.416 nM | CC1(c2cc(O)c(C(F)(F)F)cn2)C(=O)Nc2nc(-c3cn4ccnc4c(Cc4cccc(F)c4)n3)nc(N)c21 (stereo not shown) [Example 145-B, 4-amino-2-(8-{3-fluorobenzyl}imidazo-[1,2-a]pyrazin-6-yl)-5-(4-hydroxy-5-(trifluoromethyl)pyridin-2-yl)-5-methyl-5,7-dihydro-6H-pyrrolo-[2,3-d]pyrimidin-6-one] |  |  | 
96% | 2350 nM | 0.378 nM | CC1(c2cc(O)c(C(F)(F)F)cn2)C(=O)Nc2nc(-c3cn4ccnc4c(Cc4ccccc4F)n3)nc(N)c21 (stereo not shown) [Example 146-B, 4-amino-2-(8-{2-fluorobenzyl}imidazo-[1,2-a]pyrazin-6-yl)-5-(4-hydroxy-5-(trifluoromethyl)-pyridin-2-yl)-5-methyl-5,7-dihydro-6H-pyrrolo-[2,3-d]pyrimidin-6-one] |  |  | 
